Target: T1, RORγ (Mus musculus, UniProt P51450)
T1 construct: mRORγ (Pro-261-end); expressed in transfected cells
T1 sequence (P51450 261-516 limits assumed): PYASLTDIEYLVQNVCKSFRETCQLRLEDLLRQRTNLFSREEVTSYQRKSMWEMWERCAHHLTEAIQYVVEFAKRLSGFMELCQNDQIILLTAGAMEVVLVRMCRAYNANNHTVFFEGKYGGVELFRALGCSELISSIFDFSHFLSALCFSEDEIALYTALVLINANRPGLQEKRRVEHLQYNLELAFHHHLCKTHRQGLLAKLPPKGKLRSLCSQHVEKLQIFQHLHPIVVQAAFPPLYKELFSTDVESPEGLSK
Test: Gal4-RORγ-LBD UAS-luciferase reporter assay in TRex-CHO-K1 cells (doxycycline-stimulated)
Assay type: cell-based
Conditions: IC50 (μM) (N=4) RORγ, individual controls of library 1295, second confirmatory dose response, Figure 2
Text: (§1) The Gal4-DBD-ROR-LBD fusion proteins were subcloned in the pcDNA4/TO expression vector (Thermo Scientific) and transfected into TRex-CHO-K1 cells (Thermo Scientific) for tetracycline-controlled expression of the corresponding ROR proteins. Transfected cells were selected with hygromycin and Zeocin and individual clones for each of the Gal4-RORγ, Gal4-RORα, and Gal4-RORβ cell lines were isolated using a standard serial dilution protocol. Clones with the highest doxycycline-dependent stimulation of luciferase activity were selected for all functional experiments.
(§2) For screening FIU libraries, cells were resuspended in Ham’s F-12 assay medium containing 2% charcoal-treated FBS and no selection drugs. […] Cells were allowed to attach for 2 h, followed by compound treatment and stimulation with 20 ng/mL doxycycline for an additional 16–20 h. Appropriate solvent controls, negative controls with no doxycycline, and blanks with no cells were included in every plate. Prior to measuring luciferase activity, 6 µL of 0.15 mg/mL resazurin (Cayman Chemical) in PBS were added and cells were incubated for 1 h at 37 °C. Fluorescence intensity was detected at 545 nm excitation/590 nm emission using a CLARIOstar reader (BMGLabtech) as a measure of cell viability, to identify any potential cytotoxic effect of test compounds and mixtures.
(§3) Luminescence was normalized by the fluorescence intensity and the percentage of inhibition was calculated with respect to control cells stimulated with doxycycline in the presence of solvent control (0.1% DMF). All primary screens with individual compounds were performed in triplicate with a final concentration of 5 µg/mL. […] IC50 values were calculated using GraphPrism (GraphPad software).

Compound | IC50 [µM]
O=C(Cc1ccccc1)NC1=NC[C@H](Cc2ccccc2)N1CCC1CC2CCC1C2 (stereo partly drawn) [1295.270] | 5.9 ± 3.3
CC1CCC(CN2C(NC(=O)Cc3ccccc3)=NC[C@@H]2Cc2ccccc2)CC1 (stereo partly drawn) [1295.269] | 5.8 ± 0.6

Continued, values first:

IC50 [µM] | Compound
9.5 ± 2.6 | CC1CCC(C(=O)NC2=NC[C@H](Cc3ccccc3)N2CCc2ccccc2)CC1 (stereo partly drawn) [1295.306]
5.8 ± 0.4 | O=C(CC1CC2CCC1C2)NC1=NC[C@H](Cc2ccccc2)N1CCc1ccccc1 (stereo partly drawn) [1295.307]
4.8 | CC(CC(=O)NC1=NC[C@H](Cc2ccccc2)N1CCc1ccccc1)c1ccccc1 (stereo partly drawn) [1295.274]

Same assay, conditions: T-REx-CHO-K1, read-out: % Inhibition RORγ 5 μg/ml

Compound | inhibition at 5 µg/mL [%]
O=C(Cc1ccccc1)NC1=NC[C@H](Cc2ccccc2)N1CCC1CC2CCC1C2 (stereo partly drawn) [1295.270] | 84.6
CC1CCC(CN2C(NC(=O)Cc3ccccc3)=NC[C@@H]2Cc2ccccc2)CC1 (stereo partly drawn) [1295.269] | 104

Now from value to compound:

inhibition at 5 µg/mL [%] | Compound
97.8 | CC1CCC(C(=O)NC2=NC[C@H](Cc3ccccc3)N2CCc2ccccc2)CC1 (stereo partly drawn) [1295.306]
101 | O=C(CC1CC2CCC1C2)NC1=NC[C@H](Cc2ccccc2)N1CCc1ccccc1 (stereo partly drawn) [1295.307]
105 | CC(CC(=O)NC1=NC[C@H](Cc2ccccc2)N1CCc1ccccc1)c1ccccc1 (stereo partly drawn) [1295.274]

Same assay, conditions: from IC50 values in reporter cells

selectivity towards RORγ over RORα and RORβ | Compound
slightly more selective than RORα/β | CC(CC(=O)NC1=NC[C@H](Cc2ccccc2)N1CCc1ccccc1)c1ccccc1 (stereo partly drawn) [1295.274]

Target: T2, RORα (Homo sapiens, UniProt P35398)
T2 construct: hRORα (Pro-211-end); expressed in transfected cells
T2 sequence (P35398 266-523): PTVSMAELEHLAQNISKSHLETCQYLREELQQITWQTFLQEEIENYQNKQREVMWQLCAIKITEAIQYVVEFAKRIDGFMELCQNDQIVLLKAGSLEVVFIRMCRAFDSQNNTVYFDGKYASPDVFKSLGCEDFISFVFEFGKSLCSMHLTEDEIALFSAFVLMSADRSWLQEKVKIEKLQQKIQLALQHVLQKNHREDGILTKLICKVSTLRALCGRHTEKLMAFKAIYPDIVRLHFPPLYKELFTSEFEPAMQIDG
Test: Gal4-RORα-LBD UAS-luciferase reporter assay in TRex-CHO-K1 cells (doxycycline-stimulated)
Assay type: cell-based
Conditions: IC50 (μM) (N=4) RORα, individual controls of library 1295, second confirmatory dose response, Figure 2
Text: as §1, §2, §3

Compound | IC50 [µM]
O=C(Cc1ccccc1)NC1=NC[C@H](Cc2ccccc2)N1CCC1CC2CCC1C2 (stereo partly drawn) [1295.270] | 9 ± 0.2
CC1CCC(CN2C(NC(=O)Cc3ccccc3)=NC[C@@H]2Cc2ccccc2)CC1 (stereo partly drawn) [1295.269] | 9 ± 0.3

Next, values leading:

IC50 [µM] | Compound
9.7 ± 1.6 | CC1CCC(C(=O)NC2=NC[C@H](Cc3ccccc3)N2CCc2ccccc2)CC1 (stereo partly drawn) [1295.306]
8.9 ± 0.4 | O=C(CC1CC2CCC1C2)NC1=NC[C@H](Cc2ccccc2)N1CCc1ccccc1 (stereo partly drawn) [1295.307]
7.4 ± 0.2 | CC(CC(=O)NC1=NC[C@H](Cc2ccccc2)N1CCc1ccccc1)c1ccccc1 (stereo partly drawn) [1295.274]

Target: T3, RORβ (Rattus norvegicus, UniProt P45446)
T3 construct: rRORβ (Pro 205-end); expressed in transfected cells
T3 sequence (P45446 205-459 isoform P45446-1): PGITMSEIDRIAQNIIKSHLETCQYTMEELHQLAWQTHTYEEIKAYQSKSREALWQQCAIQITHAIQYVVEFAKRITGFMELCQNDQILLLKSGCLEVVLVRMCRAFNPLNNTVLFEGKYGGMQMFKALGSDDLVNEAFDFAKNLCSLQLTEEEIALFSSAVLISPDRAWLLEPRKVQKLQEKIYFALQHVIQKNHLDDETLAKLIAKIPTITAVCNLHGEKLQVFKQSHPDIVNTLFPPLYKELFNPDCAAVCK
Test: Gal4-RORβ-LBD UAS-luciferase reporter assay in TRex-CHO-K1 cells (doxycycline-stimulated)
Assay type: cell-based
Conditions: IC50 (μM) (N=4) RORβ, individual controls of library 1295, second confirmatory dose response, Figure 2
Text: To investigate the transcriptional activity of all three RORs, we generated stable cell lines expressing an UAS-driven luciferase reporter together with the corresponding Gal4-DNA binding domain fused to the ligand binding domains (LBDs) of mRORγ (Pro-261-end), hRORα (Pro-211-end), or rRORβ (Pro 205-end). The Gal4-DBD-ROR-LBD fusion proteins were subcloned in the pcDNA4/TO expression vector (Thermo Scientific) and transfected into TRex-CHO-K1 cells (Thermo Scientific) for tetracycline-controlled expression of the corresponding ROR proteins. Transfected cells were selected with hygromycin and Zeocin and individual clones for each of the Gal4-RORγ, Gal4-RORα, and Gal4-RORβ cell lines were isolated using a standard serial dilution protocol. Clones with the highest doxycycline-dependent stimulation of luciferase activity were selected for all functional experiments. All cell lines were maintained in complete Ham’s F12 medium containing 10% fetal bovine serum (FBS), 10 µg/mL blasticidine, 100 µg/mL hygromycin, and 100 µg/mL Zeocin and were used within 2 months of culture without any loss of doxycycline-dependent stimulation of luciferase activity.
For screening FIU libraries, cells were resuspended in Ham’s F-12 assay medium containing 2% charcoal-treated FBS and no selection drugs. Ten thousand cells per well were seeded in 30 µL of assay medium in 384 white plates with clear bottom (Greiner). Cells were allowed to attach for 2 h, followed by compound treatment and stimulation with 20 ng/mL doxycycline for an additional 16–20 h. Appropriate solvent controls, negative controls with no doxycycline, and blanks with no cells were included in every plate. Prior to measuring luciferase activity, 6 µL of 0.15 mg/mL resazurin (Cayman Chemical) in PBS were added and cells were incubated for 1 h at 37 °C. Fluorescence intensity was detected at 545 nm excitation/590 nm emission using a CLARIOstar reader (BMGLabtech) as a measure of cell viability, to identify any potential cytotoxic effect of test compounds and mixtures. Following the resazurin assay, the medium was removed and 20 µL of BriteLite-Plus luciferase reagent (Perking Elmer) were added; luminescence was measured in a CLARIOstar reader using a 384 aperture spoon and a 0.1 sec measuring time interval.
as §3

Compound | IC50 [µM]
O=C(Cc1ccccc1)NC1=NC[C@H](Cc2ccccc2)N1CCC1CC2CCC1C2 (stereo partly drawn) [1295.270] | 9.3 ± 4.9
CC1CCC(CN2C(NC(=O)Cc3ccccc3)=NC[C@@H]2Cc2ccccc2)CC1 (stereo partly drawn) [1295.269] | 9.3 ± 0.8

Results, then the compound that gave them:

IC50 [µM] | Compound
9.4 ± 0.6 | CC1CCC(C(=O)NC2=NC[C@H](Cc3ccccc3)N2CCc2ccccc2)CC1 (stereo partly drawn) [1295.306]
7.6 ± 0.3 | O=C(CC1CC2CCC1C2)NC1=NC[C@H](Cc2ccccc2)N1CCc1ccccc1 (stereo partly drawn) [1295.307]
6.7 ± 0.3 | CC(CC(=O)NC1=NC[C@H](Cc2ccccc2)N1CCc1ccccc1)c1ccccc1 (stereo partly drawn) [1295.274]
